{"source": "patent US9044142B2", "about": "“Surgical optical systems for detecting brain tumors” (Carl Zeiss Meditec AG, priority 2010, dated 2015)", "key": {"GL261-luc glioma cells [1]": {"system": "GL261-luc glioma cells", "assay": "Intraoperative confocal endomicroscopy of ICG distribution in GL261-luc glioma mouse model", "type": "in vivo", "conditions": "0.4 mg/kg intravenously, mice", "method": "Thirty mice implanted with glioblastoma cells underwent craniectomies for exposure of tumors 14 days implantation. Tumors were clearly visible macroscopically and extended from cortical surface to deep basal brain structures. ICG was then administered using 0.4 mg/kg, equivalent to a standard single dose for humans (see, e.g., I. Roberts et al., Lancet 342, (1993)). […] Other regions presented a complex mixture of these patterns, with mostly normal-appearing brain punctuated by large pleomorphic cells consistent with an infiltrative margin or satellite tumor cell clusters surrounded by brain tissue. Importantly, patterns consistent with tumor morphology were also seen in brain tissue neighboring the tumor that appeared macroscopically normal as viewed via the surgical microscope. Critically, individual tumor cells within brain tissue could be identified within 475×475 μm field of view and a definitive tumor border delimited (FIGS. 2A-2D).\n(§1) The GL261 cell line was obtained from the Division of Cancer Treatment and Diagnosis (DCTD) of the National Cancer Institute (NCl), Frederick, Md. […] The morphological, biochemical and growth characteristics of the GL261 mouse brain tumor model have been described elsewhere (see, e.g., M. Candolfi et al., J Neurooncol 85, 133 (November, 2007) and T. Szatmari et al., Cancer Sci 97, 546 (June, 2006)). To facilitate a quantitative measurement of the tumor growth rate, GL261 cells were made bioluminescent using the Lentiphos™ HT System (Clontech Laboratories, Inc., Mountain View, Calif.) with the Lenti-X™ HT Packaging Mix (Clontech Laboratories, Inc.) and the FUW-GL plasmid (a generous gift from the laboratory of J. B. Rubin, MD, PhD). The resulting GL261-luc cells were grown in Dulbecco's modified eagle's medium (DMEM, Invitrogen, Carlsbad, Calif.) supplemented with 10% tetracycline-free fetal calf serum (Clontech Laboratories, Inc) at 37° C. with 5% CO2. Cultured cells were harvested by trypsinization, washed once in phosphate-buffered saline (Invitrogen, Carlsbad, Calif.), and resuspended in DMEM without serum at a concentration of 1×10^7 cells/mL.\nAnimals were anesthetized by intraperitoneal injection of a mixture of 10 mg/kg xylazine and 80 mg/kg ketamine (Wyeth, Madison, N.J.). A 10-mm incision was made starting between the animal's eyes, exposing the bregma. A bur hole was made 0.1 mm posterior to the bregma and 2.3 mm right of the midline using a small animal stereotactic headframe (Model 900, David Kopf Instruments, Tujunga, Calif.). […]\nThis study was conducted in two main phases. The purpose of the first phase was to validate the use of ICG fluorescence in both intraoperative NIR macroscopic and miniaturized confocal endomicroscopic techniques for the identification of brain tumors in the mouse model. […]"}, "GL261-luc glioma cells [2]": {"system": "GL261-luc glioma cells", "assay": "Intraoperative NIR fluorescence macroscopy of ICG in GL261-luc glioma mouse model", "type": "in vivo", "description": "as §1\nAnimals were anesthetized by intraperitoneal injection of a mixture of 10 mg/kg xylazine and 80 mg/kg ketamine (Wyeth, Madison, N.J.). A 10-mm incision was made starting between the animal's eyes, exposing the bregma. […]\nThis study was conducted in two main phases. The purpose of the first phase was to validate the use of ICG fluorescence in both intraoperative NIR macroscopic and miniaturized confocal endomicroscopic techniques for the identification of brain tumors in the mouse model. […] Several intraoperative fluorescence macroscopic video loops, confocal images, and histological specimens were collected and analyzed from each mouse. […] Two cohorts of animals were used in the second phase: (1) six mice were used for intraoperative fluorescence macroscopy and (2) six mice were used for intraoperative confocal endomicroscopy. […]"}, "[3]": {"conditions": "cited from earlier work"}, "[4]": {"conditions": "humans; cited from earlier work"}}}
{"molecule": "CC1(C)C(/C=C/C=C/C=C/C=C2\\N(CCCCS(=O)(=O)O)c3ccc4ccccc4c3C2(C)C)=[N+](CCCCS(=O)(=O)[O-])c2ccc3ccccc3c21", "note": "[ICG, Indocyanine green]", "values": [{"measurement": "ICG distribution in normal-appearing brain distant from the tumor (confocal endomicroscopy)", "setting": "GL261-luc glioma cells [1]", "value": "predominantly intravascular ICG distribution"}, {"measurement": "ICG distribution within obvious tumor tissue (confocal endomicroscopy)", "setting": "GL261-luc glioma cells [1]", "value": "extravascular ICG concentrated in clusters of cellular structures"}, {"measurement": "ICG fluorescence of tumor cells (confocal endomicroscopy)", "setting": "GL261-luc glioma cells [1]; fifteen minutes after ICG injection", "value": "entire tumor mass was saturated with ICG"}, {"measurement": "ICG fluorescence of tumor cells (confocal endomicroscopy)", "setting": "GL261-luc glioma cells [1]; immediately after ICG injection", "value": "fluorescence was seen only in a few clusters of tumor cells"}, {"measurement": "intensity of macroscopic fluorescence in the central region of tumor", "setting": "GL261-luc glioma cells [2]; 15 minutes after injection versus one minute", "value": "increased"}, {"measurement": "macroscopic tumor visibility with NIR light", "setting": "GL261-luc glioma cells [2]; after ICG injection, tumor 14 days after implantation, mice", "value": "macroscopically visible"}, {"measurement": "macroscopic ICG fluorescence in vessels", "setting": "GL261-luc glioma cells [2]; immediately after intravenous injection", "value": "could be observed in major vessels"}, {"measurement": "fraction of originally injected volume detectable in the blood", "setting": "[3]; after 10 minutes", "value": "only a small fraction"}, {"measurement": "binding to globulins, preferentially to α1-lipoproteins", "setting": "[3]; after intravenous injection", "value": "almost completely"}, {"measurement": "main source of clearance", "setting": "[3]; in vivo", "value": "hepatic elimination"}, {"measurement": "metabolism in the body", "setting": "[3]; in vivo", "value": "not metabolized"}, {"measurement": "toxicity", "setting": "[4]", "value": "one of the least toxic substances ever administered to humans"}]}
